Active and inactive are the calls of the source.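 Rule for the calls: active = more than half of replicate measurements showing over 20% loss of kinase signal relative to plate controls; inconclusive = some but at most half of replicates over 20% loss; inactive = no replicate over 20% signal loss.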
molecular target: Glycogen synthase kinase-3 alpha (Homo sapiens) (UniProt P49840); assay: concentration-response blocking of human GSK3A – biochemical, luminescence, cell-free homogeneous, retest, dose response (AID 463203); details: GSK-3 alpha enzyme, ADP-Glo luminescence, 60 min
Sequence (P49840 whole entry, looked up): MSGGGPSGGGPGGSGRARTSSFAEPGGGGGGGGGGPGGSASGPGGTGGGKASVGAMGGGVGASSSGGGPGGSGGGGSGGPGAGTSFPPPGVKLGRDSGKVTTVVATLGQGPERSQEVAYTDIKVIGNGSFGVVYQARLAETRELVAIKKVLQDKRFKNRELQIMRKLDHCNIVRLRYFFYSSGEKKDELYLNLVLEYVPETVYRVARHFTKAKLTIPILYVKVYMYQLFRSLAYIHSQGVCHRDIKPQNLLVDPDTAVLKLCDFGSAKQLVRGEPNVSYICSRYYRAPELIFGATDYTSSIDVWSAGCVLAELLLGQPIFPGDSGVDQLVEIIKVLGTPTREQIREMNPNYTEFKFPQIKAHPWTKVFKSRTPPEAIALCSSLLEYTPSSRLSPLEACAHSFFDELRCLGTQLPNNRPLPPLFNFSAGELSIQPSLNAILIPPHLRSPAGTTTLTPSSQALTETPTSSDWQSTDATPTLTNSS

Structure (SMILES) | AC50
O=C(NC(=S)Nc1cccc2c(O)cccc12)c1ccccc1[N+](=O)[O-] | > 30 µM (inactive)
Cc1cccc(C)c1OCC(=O)N=Nc1c(O)[nH]c2ccc(Br)cc12 | > 30 µM (inactive)
O=C(O)Cn1cc(/C=N/NC(=O)c2cc3cc(Br)ccc3o2)c2ccccc21 | 6.05 µM
COc1ccc(OC)c(/C=N/NC(=O)c2nnn(-c3nonc3N)c2-c2cccs2)c1 | 1.35 µM
COc1ccc(/C=C2\Oc3cc(OCC(=O)N4CCC[C@H]4C(=O)O)ccc3C2=O)c(OC)c1OC | > 30 µM (inactive)
CC(C)(C)OC(=O)N1CCC(NC(=O)c2[nH]cnc2C(=O)Nc2ccc(Cl)cc2)CC1 | > 30 µM (inactive)
CCN1CCN(c2nc(Nc3ccccc3F)nc(N)c2[N+](=O)[O-])CC1 | > 30 µM (inactive)
COc1ccc(/C=C2\Oc3cc(OCC(=O)N4CCC[C@H]4C(=O)O)ccc3C2=O)c(OC)c1 | > 30 µM (inactive)
COC(=O)CCCCCCCCC(O)CN(C)C (stereo unspecified) | > 30 µM (inactive)
COC(=O)c1c(NC(=O)CN2C(=O)NC3(CCC(C(C)(C)C)CC3)C2=O)sc2c1CCCCC2 (stereo unspecified) | > 30 µM (inactive)
CC(C)c1c(C(=O)N/N=C/c2cccnc2)nnn1-c1nonc1N | > 30 µM (inactive)
O=[N+]([O-])c1ccc(O)c(/C=N/n2c(-c3ccccc3)n[nH]c2=S)c1 | 26.3 µM
O=C(O)CCNc1ccc(NCCC(=O)O)c2c1C(=O)c1ccccc1C2=O | 22.7 µM
c1ccc2c(c1)ccc1nnc(SCc3ccc4c(c3)OCO4)n12 | > 30 µM (inactive)
COc1ccc(S(=O)(=O)N[C@H](C(=O)O)C(C)C)cc1 | > 30 µM (inactive)
CCOC(=O)Nc1nc(C)c(C(=O)c2ccc(Cl)cc2)s1 | > 30 µM (inactive)

Structure (SMILES) | AC50
CCCOc1ccc(-c2nnc(N)s2)cc1 | > 30 µM (inactive)
CCOc1cccc(-c2c(C(=O)N/N=C/c3ccco3)nnn2-c2nonc2N)c1 | 10.5 µM
O=C(c1ccco1)c1cn(CC(=O)N2CCCCC2)c2ccccc12 | > 30 µM (inactive)
COc1ccc(-c2ncncc2-c2ccc(OC)c(OC)c2)c(O)c1 | 10.3 µM
CN(C(=O)/C=C/c1ccc2c(c1)OCO2)c1ccccc1 | 6.73 µM
CC(=O)Nc1ccc(NS(=O)(=O)c2cccc3nonc23)cc1 | > 30 µM (inactive)
C=CC(=O)Nc1sc2c(c1C(N)=O)CCCC2 | 13.9 µM
COc1ccc(C2=Nn3c(nnc3-c3cccnc3)SC2)cc1OC | > 30 µM (inactive)
O=C(/C=C/c1cccc2ccccc12)c1ccncc1 | > 30 µM (inactive)
COc1cccc(-c2c(C(=O)N/N=C(\C)c3cccs3)nnn2-c2nonc2N)c1 | 1.61 µM
CCCCn1c(SCC(=O)Nc2sc3c(c2C(N)=O)CCC3)nnc1-c1ccccc1 | > 30 µM (inactive)
CCCCc1cc(=O)oc2cc(O)ccc12 | 25.9 µM
Cc1ccc(C)c(-n2c3nc(=O)n(C)c(=O)c-3cc3ccccc32)c1 | 31.3 µM
CCOC(=O)c1cc(-c2ccc(F)cc2)n(CC(=O)NC(C)CC)c1C (stereo unspecified) | > 30 µM (inactive)
Cc1csc(NC(=O)/C=C/c2ccc3c(c2)OCO3)n1 | > 30 µM (inactive)
COc1ccc(N=c2oc3c(OC)cccc3cc2C(=O)NCc2ccco2)cc1OC | > 30 µM (inactive)

The remaining lines, values ahead:

AC50 | Structure (SMILES)
> 30 µM (inactive) | Cc1ccc(C(=O)N/N=c2\oc3ccccc3cc2C(N)=O)cc1
> 30 µM (inactive) | Cn1c2ccc(Cl)cc2c2nc3ccccc3nc21
> 30 µM (inactive) | Cc1ccc(OCC(=O)NNC(=O)C(C)Sc2ncnc3sc(C)c(C)c23)cc1 (stereo unspecified)
22.9 µM | CCOC(=O)C1=C(c2ccccc2)Nc2ncnn2C1c1cccc(O)c1 (stereo unspecified)
5.81 µM | CCn1c(SCC(=O)Nc2nc3ccc(OC)cc3s2)nnc1-c1ccoc1C
> 30 µM (inactive) | Cc1ccc(N(CC(O)CN2CCCC2)S(=O)(=O)c2ccccc2)cc1 (stereo unspecified)
> 30 µM (inactive) | COc1ccc(CCNc2cc(C)nc(N)n2)cc1OC
> 30 µM (inactive) | CCOC(=O)c1nnn(-c2ccc(OC)cc2)c1N
2.08 µM | CN(C)/C=C/c1c([N+](=O)[O-])c2ccc(O)cc2n1-c1ccccc1
> 30 µM (inactive) | CCCCC(=O)Nc1nn(CCC)c2nc3ccccc3cc12
> 30 µM (inactive) | CCOC(=O)N1CCC(N2CCN(S(=O)(=O)c3ccc(NC(C)=O)cc3)CC2)CC1
9.59 µM | O=C(CN(Cc1ccc(F)cc1)C(=O)CCC(=O)Nc1nccs1)NCc1ccc(F)cc1
5.85 µM | C(=N\Nc1ncnc2sc3c(c12)CCC3)/c1ccncc1
28.2 µM | Cc1sc2ncnc(N3CCC(C(=O)Nc4ccc(S(N)(=O)=O)cc4)CC3)c2c1C
> 30 µM (inactive) | C/C(CC(=O)N(C(C)C)C(C)C)=N\NC(=O)COc1ccc(Br)cc1Br
25.3 µM | O/N=C1/CC/C(=N\O)c2nn(-c3ccccc3)nc21
> 30 µM (inactive) | O=[N+]([O-])c1cc(S(=O)(=O)N2CCCCC2)ccc1NCCCN1CCOCC1
9.97 µM | COCCCNc1nc(N)c([N+](=O)[O-])c(N2CCCCCC2)n1
> 30 µM (inactive) | COc1ccc(NC(=O)Nc2cc(F)ccc2C)cc1

Source: PubChem BioAssay AID463203 (Broad Institute, 2010)
